The source of these data is US10358454B2, “Marinopyrrole derivatives and methods of making and using same” (H. LEE MOFFITT CANCER CENTER AND RESEARCH INSTITUTE, INC., priority 2014, dated 2019).

Series [1] has as its system human breast cancer MDA-MB-468 cells. The series can be described thus: Western blotting of MDA-MB-468 cells treated with marinopyrrole derivatives (Mcl-1, Bim, caspase 3). As to conditions: 10 μM for 16 h. In kind it is cell-based. As for the experimental part:
The cells were then processed for western blotting according to a previously described methods (Balasis M E et al. Clin. Cancer Res. 2011, 17, 2852-2862). […] However, none of the cyclic marinopyrroles were active in intact cells.
(§1) ELISAs were performed using a modified version of a previously described procedure (Doi K et al. J. Biol. Chem. 2012, 287, 10224-10235). Briefly, 40 nM of biotinylated Bim BH3 peptide (Biomatik) in SuperBlock blocking buffer (Pierce) was incubated in high-binding capacity streptavidin-coated plates (Pierce) for 2 h. Compounds were diluted in 120 μl of PBS containing 10 nM of GST-Mcl-1 or GST-Bcl-xL in 1.5 mL tubes for 15 min. Wells were washed with wash buffer (PBS containing 0.05% Tween-20) and then 100 μL of the compound/GST-protein mixture was transferred to the wells. The plates were incubated for 2 h, and then the wells were washed with wash buffer. HRP-conjugated anti-GST antibody (Bethyl Laboratories) was diluted 1:2000 in SuperBlock and 100 μL was transferred to each well. The plate was incubated for 1 h, and then the wells were washed with wash buffer followed by PBS. 100 μL of SureBlue TMB Microwell Peroxidase Substrate (VWR) was added to each well and plates were developed for 5-10 min. 100 μL of 1 N HCl was added to each well to stop the reaction and absorbance was read at 450 nm using a μQuant plate reader (Bio-Tek).

Series [2] deals with cultured human cancer cells. Nature of the series: Induction of apoptosis in cultured human cancer cells. The format is cell-based. Particulars: intact cell studies.
Series [3] deals with Mcl-1/Bim (Homo sapiens, UniProt Q07820). The series can be described thus: Mcl-1/Bim ELISA (GST-Mcl-1 binding to biotinylated Bim BH3 peptide). Particulars: for selectivity profile Mcl-1 vs Bcl-xL in words: from Mcl-1/Bim and Bcl-xL/Bim ELISA; for selectivity for Mcl-1 over Bcl-xL (Mcl-1/Bim over Bcl-xL/Bim): ratio of ELISA IC50 values. As for the experimental part: as §1
Mcl-1/Bim, sequence (Q07820 whole entry): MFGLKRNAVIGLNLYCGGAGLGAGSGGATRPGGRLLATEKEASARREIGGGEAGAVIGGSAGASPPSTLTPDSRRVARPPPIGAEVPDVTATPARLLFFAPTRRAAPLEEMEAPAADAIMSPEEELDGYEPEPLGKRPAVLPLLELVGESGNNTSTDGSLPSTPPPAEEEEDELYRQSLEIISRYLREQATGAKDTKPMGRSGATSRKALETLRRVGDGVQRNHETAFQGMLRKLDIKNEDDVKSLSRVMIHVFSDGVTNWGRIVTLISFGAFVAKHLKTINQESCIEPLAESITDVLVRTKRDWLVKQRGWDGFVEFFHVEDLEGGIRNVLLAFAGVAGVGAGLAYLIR
(§2) ELISAs were performed using a similar procedure as previously described (Doi K, et al. J. Biol. Chem. 2012, 287, 10224-10235). Briefly, 40 nM of biotinylated Bim BH3 peptide (Biomatik) in SuperBlock blocking buffer (Pierce) was incubated in high-binding capacity streptavidin-coated plates (Pierce) for 2 h. Compounds were diluted in 120 μl of PBS containing 10 nM of GST-Mcl-1 or GST-Bcl-xL in 1.5 mL tubes for 15 min. Wells were washed with wash buffer (PBS containing 0.05% Tween-20) and then 100 μL of the compound/GST-protein mixture was transferred to the wells. The plates were incubated for 2 h, and then wells were washed with wash buffer. HRP-conjugated anti-GST antibody (Bethyl Laboratories) was diluted 1:2000 in SuperBlock and 100 μL was transferred to each well. The plate was incubated for 1 h, and then wells were washed with wash buffer followed by PBS. 100 μL of SureBlue TMB Microwell Peroxidase Substrate (VWR) was added to each well and plates were developed for 5-10 min. 100 μL of 1 N HCl was added to each well to stop the reaction and absorbance was read at 450 nm using μQuant plate reader (Bio-Tek).
(In an ELISA, binding on a coated surface is turned into a signal by an enzyme label.)

In series [4] the target is Bcl-xL/Bim (Homo sapiens, UniProt Q07817). Nature of the series: Bcl-xL/Bim ELISA (GST-Bcl-xL binding to biotinylated Bim BH3 peptide). On the procedure: as §1, §2
Bcl-xL/Bim, sequence (Q07817 whole entry): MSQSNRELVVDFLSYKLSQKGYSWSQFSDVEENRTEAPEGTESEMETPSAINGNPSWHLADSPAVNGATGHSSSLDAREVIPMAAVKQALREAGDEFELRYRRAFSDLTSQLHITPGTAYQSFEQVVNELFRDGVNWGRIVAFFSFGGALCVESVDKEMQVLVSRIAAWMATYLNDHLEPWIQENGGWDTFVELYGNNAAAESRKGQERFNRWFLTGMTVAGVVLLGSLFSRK
The target of series [5] is T1, Mcl-1 (Homo sapiens, UniProt Q07820). Nature of the series: 15N-HSQC NMR chemical shift perturbation with docking. The format is binding. Also noted: MBP (cleaved yes); made in house; host or cells: E. coli BL21(DE3) Codon+. Particulars: HSQC chemical shift changes, listed as II-4. As for the experimental part:
^15N-HSQC spectra were recorded on ^15N-labelled Mcl-1 at 0.1 mM prepared in 50 mM potassium phosphate solution at pH 6.5, 50 mM NaCl and 1 mM DTT. Titrations up to 100 μM of 1-21 and 1-18 compounds were performed. NMR spectra were acquired at 25° C. on an Inova 600 MHz spectrometer equipped with a cryoprobe and analyzed in CCPNMR (Vranken W F, et al. Proteins. 2005, 59, 687-696).
NMR-guided docking of 1-21 into the X-ray crystal structure of Mcl-1 (PDB ID: 3KJ0) was performed using Glide (Maestro, Schrodinger) (Friesner R A et al. J. Med. Chem. 2004, 47, 1739-1749; Friesner R A, et al. J. Med. Chem. 2006, 49, 6177-6196; Halgren T A, et al. J. Med. Chem. 2004, 47, 1750-1759; Gavathiotis E, et al. Nat. Chem. Biol. 2012, 8, 639-645). The lowest-energy docking pose is consistent with the observed NMR-chemical shift perturbation data. Pymol is used for preparing the highlighted poses.
Structural characterization of I-20 and II-4 was performed using NMR. HSQC spectra were collected at different ratios of compound:Mcl-1. […] The residues that undergo chemical shift changes upon compounds' binding onto the structure of Mcl-1 and the compounds' binding location were mapped (FIG. 6B). An induced fit molecular docking approach guided by the NMR chemical shifts was used to determine the structural models of the compounds bound to Mcl-1 using Glide software (Schrodinger; FIG. 6C). […]
Target sequence in this assay (Q07820 172-327): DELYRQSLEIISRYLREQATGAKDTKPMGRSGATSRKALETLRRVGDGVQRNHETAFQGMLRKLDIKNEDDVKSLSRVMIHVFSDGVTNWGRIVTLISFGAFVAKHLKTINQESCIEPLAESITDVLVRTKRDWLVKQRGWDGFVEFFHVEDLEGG

For series [6], the target named is T1, Mcl-1. Nature of the series: Fluorescence-quenching (FQ) assay based on intrinsic Trp fluorescence of Mcl-1. In kind it is binding. The source says: To investigate direct binding of compounds to Mcl-1, a fluorescence-quenching (FQ) assay based on the intrinsic Trp fluorescence of Mcl-1 was established.
Target sequence in this assay (Q07820 whole entry): as the sequence (Q07820 whole entry) above
The nature of series [7]: Solubility. Particulars: aqueous solubility.
The mark [8] stands for this setting: Table 2-B, n ≥ 3, read-out: Mcl-1/Bim IC50 (average ± SEM).
The mark [9] stands for this setting: Table 3-A structure I, Mcl-1 at 10 nM, n ≥ 3, read-out: Mcl-1-Bim IC50 (average ± SEM).
Setting [10] is: read-out: IC50 to inhibit the binding of Mcl-1 to Bim.
[11] abbreviates: Table 3-A structure I, Bcl-xL at 10 nM, n ≥ 3, read-out: Bcl-xL-Bim IC50 (average ± SEM).
Setting [12] is: read-out: IC50 to inhibit Bcl-xL/Bim binding.

What is called Kd is the concentration at which binding is half-saturated.

“Also recorded” adds a separate entry of the source. Where two headings read alike, the source gives them in different places.

On to `O=C(c1ccccc1O)c1[nH]c(Cl)c(Cl)c1-n1c(C(=O)c2ccccc2O)cc(Cl)c1Cl` (single isomer, unassigned) [(−)-1, reference compound], for which the “effect on levels of Mcl-1 and Bim and cleavage of caspase 3” value (from here on “effect on levels”) in series [1] is “able to decrease Mcl-1 and Bim and to cleave caspas 3”.

Consider `C=Cc1ccc(C(=O)c2[nH]c(Cl)c(Cl)c2-n2c(C(=O)c3ccc(C=C)cc3O)cc(Cl)c2Cl)c(O)c1` [Compound 1-4, (4,4′,5,5′-Tetrachloro-1′H-1,3′-bipyrrole-2,2′-diyl)bis((2-hydroxy-4-vinylphenyl)methanone)], for which, in series [2], the induction of apoptosis result was “induced apoptosis”. Moreover, in series [3], the “selectivity profile Mcl-1 vs Bcl-xL in words” value is “dual Mcl-1 and Bcl-XL antagonists”.

Turning to `CCc1ccc(C(=O)c2[nH]c(Cl)c(Cl)c2-n2c(C(=O)c3ccc(CC)cc3O)cc(Cl)c2Cl)c(O)c1` [Compound 1-5, (4,4′,5,5′-Tetrachloro-1′H-1,3′-bipyrrole-2,2′-diyl)bis((4-ethyl-2-hydroxyphenyl)methanone)], in series [2], the induction of apoptosis result is given as “induced apoptosis”. The IC50 is 2.1 ± 0.5 µM in series [3] (setting [8]); 2.1 ± 0.5 µM in series [3] (setting [9]); 2.1 µM in series [3] (setting [10]); 3.9 ± 1.2 µM in series [4] (Table 2-B, n ≥ 3 unless specified, read-out: Bcl-xL/Bim IC50 (average ± SEM)); 3.9 ± 1.3 µM in series [4] (setting [11]). Also, the “selectivity profile Mcl-1 vs Bcl-xL in words” value in series [3] was “dual Mcl-1 and Bcl-XL antagonists”.

For `O=C(O)Cn1cc(-c2cc(O)c(C(=O)c3[nH]c(Cl)c(Cl)c3-n3c(C(=O)c4cc(Cl)c(-c5cn(CC(=O)O)nn5)cc4O)cc(Cl)c3Cl)cc2Cl)nn1` [Compound 1-19, 2,2′-(4,4′-((4,4′,5,5′-Tetrachloro-1′H-1,3′-bipyrrole-2,2′-dicarbonyl)bis(2-chloro-5-hydroxy-4,1-phenylene))bis(1H-1,2,3-triazole-4,1-diyl))diacetic acid], the “binding to Mcl-1 by NMR” value in series [5] is “binding to the BH3 pocket of Mcl-1; also recorded: confirmed binding to Mcl-1”. Besides, the IC50 in series [3] (Table 2-A, n ≥ 3, read-out: Mcl-1/Bim IC50 (average ± SEM)) is 5.2 ± 0.8 µM; in series [3] (Table 3-B structure II, n ≥ 3, read-out: Mcl-1-Bim IC50 (average ± SEM)), 5.2 ± 0.8 µM; in series [3] (setting [10]) it was 5.2 µM; in series [4] (Table 2-A, n ≥ 3, read-out: Bcl-xL/Bim IC50 (average ± SEM)), > 50 µM; in series [4] (Table 3-B structure II, n ≥ 3, read-out: Bcl-xL-Bim IC50 (average ± SEM)) it was > 50 µM. For the same compound, in series [3], the “selectivity for Mcl-1 over Bcl-xL (Mcl-1/Bim over Bcl-xL/Bim)” value is on record as 9.6 fold. The “direct binding to Mcl-1 by fluorescence quenching” value in series [6] was “directly bind to Mcl-1”. In addition, in series [6] (binding isotherms, read-out: Kd (binding constant)), the Kd turned out to be 2.5 µM. Moreover, the “activity against Bcl-xL/Bim in words” value in series [4] is “not active”.

Turning to `COC(=O)c1ccc(C(=O)c2[nH]c(Cl)c(Cl)c2-n2c(C(=O)c3ccc(C(=O)OC)cc3O)cc(Cl)c2Cl)c(O)c1` [Compound I-17, Dimethyl-4,4′-(4,4′,5,5′-tetrachloro-1′H-[1,3′-bipyrrole]-2,2′-dicarbonyl)bis(3-hydroxybenzoate)], the “effect on levels” value in series [1] was “significant decrease in the levels of Mcl-1 and Bim, and cleavage of caspase 3”. In addition, in series [3], the “activity against Mcl-1/Bim in words” value is listed as “showed activity”. Further, the IC50 in series [3] (setting [9]) was 16.9 ± 2.3 µM; in series [4] (setting [11]) it was > 100 µM; in series [4] (setting [12]) it was > 100 µM.

As to `O=C(O)c1ccc(C(=O)c2[nH]c(Cl)c(Cl)c2-n2c(C(=O)c3ccc(C(=O)O)cc3O)cc(Cl)c2Cl)c(O)c1` [Compound I-18, 4,4′-(4,4′,5,5′-Tetrachloro-1′H-[1,3′-bipyrrole]-2,2′-dicarbonyl)bis(3-hydroxybenzoic acid)], the “effect on levels” value in series [1] is “did not decrease Mcl-1 and Bim, and resulted in little caspase 3 cleavage”. Besides, the IC50 was 61.4 ± 7.6 µM in series [3] (setting [9]) and > 100 µM in series [4] (setting [11]). The “activity against Mcl-1/Bim in words” value in series [3] (listed as 7a) is given as “lower activity than 1; also recorded: less active”. The solubility in words result in series [7] was “improvement in aqueous solubility”. In series [4] (listed as 7a), the “activity against Bcl-xL/Bim in words” value is on record as “little activity; also recorded: less active”.

Consider `CCOP(=O)(OCC)c1ccc(C(=O)c2[nH]c(Cl)c(Cl)c2-n2c(C(=O)c3ccc(P(=O)(OCC)OCC)cc3O)cc(Cl)c2Cl)c(O)c1` [Compound I-19, tetraethyl((4,4′,5,5′-tetrachloro-1′H-[1,3′-bipyrrole]-2,2′-dicarbonyl)bis(3-hydroxy-4,1-phenylene))bis(phosphonate)], for which the “effect on levels” value in series [1] was “little effect on Mcl-1, Bim or caspase 3”. Further, the IC50 in series [3] (read-out: Mcl-1-Bim IC50 (average ± SEM)) is 7.7 ± 2.2 µM; in series [4] (setting [11]), > 100 µM; in series [4] (setting [12]), > 100 µM.

For `O=C1c2ccc(P(=O)(O)O)cc2Oc2c(Cl)cc(C(=O)c3ccc(P(=O)(O)O)cc3O)n2-c2c1[nH]c(Cl)c2Cl` [IV-6, 3-Hydroxy-4-(2,3,7-trichloro-13-oxo-10-phosphoryl-1,13-dihydrobenzo[g]dipyrrolo[2,1-b:3′,2′-d][1,3]oxazocine-5-carbonyl) phosphonic acid], the IC50 in series [3] (Table 1, Mcl-1 at 10 nM, n ≥ 3, read-out: Mcl-1-Bim IC50 (average ± SEM)) was > 100 µM; in series [3] (setting [10]), > 100 µM; in series [4] (Table 1, Bcl-xL at 10 nM, n ≥ 3, read-out: Bcl-xL-Bim IC50 (average ± SEM)), > 100 µM; in series [4] (setting [12]), > 100 µM.

For `COc1ccccc1C(=O)c1c(-n2c(C(=O)c3ccccc3OC)cc(Cl)c2Cl)c(Cl)c(Cl)n1C` [VI-11], the induction of apoptosis result in series [2] is on record as “induced apoptosis”. For the same compound, in series [3], the “selectivity for Mcl-1 over Bcl-xL (Mcl-1/Bim over Bcl-xL/Bim)” value was found to be 4.2 fold.

In the case of `Cn1c(Cl)c(Cl)c(-n2c(C(=O)c3ccccc3O)cc(Cl)c2Cl)c1C(=O)c1ccccc1O` [VI-12], the induction of apoptosis entry in series [2] is given as “induced apoptosis”. Moreover, the IC50 is > 100 µM in series [3] (setting [8]); > 100 µM in series [3] (Table 3-E structure VI, n ≥ 3, read-out: Mcl-1-Bim IC50 (average ± SEM)); > 100 µM in series [3] (setting [10]); 7.1 µM in series [4] (setting [12]). Besides, the “selectivity for Bcl-xL over Mcl-1” value in series [4] (ratio of ELISA IC50 values) is given as 12.7 fold.
